Assay results taken from PubChem BioAssay (NCI).
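Five compound concentrations were applied to cells in 96-well plates for 48 hours; endpoints were derived by simple linear interpolation of the resulting dose-response curve. TGI is the concentration that stops growth completely.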

Legend:
Experiment in all cases: NCI-60 cell line screen, 48 h
[1] = system: KM12 colon
[2] = system: A498 renal
[3] = system: OVCAR-8 ovarian
[4] = system: SW-620 colon
[5] = system: MCF7 breast
[6] = system: RXF 393 renal
[7] = system: HS 578T breast
[8] = system: NCI-H460 lung
[9] = system: SK-MEL-5 melanoma
[10] = system: HOP-92 NSCLC
[11] = system: MDA-MB-231 breast
[12] = system: SK-MEL-28 melanoma
[13] = system: A549 NSCLC
[14] = system: OVCAR-4 ovarian

SMILES: C[C@@H](NC(=O)c1ccc(CNC(=O)/C=C/c2cccc(Oc3ccccc3)c2)cc1)c1ccccc1
- TGI [1]: > 100 µM
- TGI [2]: > 90.4 µM
- TGI [3]: > 100 µM
- TGI [4]: > 100 µM
- TGI [5]: > 100 µM
- TGI [6]: 12.2 µM
- TGI [7]: 33.4 µM
- TGI [8]: > 100 µM
- TGI [9]: > 100 µM
- TGI [10]: > 100 µM
- TGI [11]: > 100 µM
- TGI [12]: > 100 µM
- TGI [13]: > 57.8 µM
- TGI [14]: > 100 µM

SMILES: CC(=O)C1=C(C)N(c2ccc(C)cc2)C2(O)C3=C(C(=O)c4ccccc4C3=O)C(O)=CC12Cl (stereo not drawn)
- TGI [1]: 33.8 µM
- TGI [2]: 10.3 µM
- TGI [3]: 53.4 µM
- TGI [4]: > 100 µM
- TGI [5]: > 100 µM
- TGI [6]: 50.8 µM
- TGI [7]: > 100 µM
- TGI [8]: > 100 µM
- TGI [9]: 22.2 µM
- TGI [10]: > 100 µM
- TGI [11]: > 100 µM
- TGI [12]: 79.4 µM
- TGI [13]: > 100 µM
- TGI [14]: > 100 µM

SMILES: O=C(O)CCCc1ccc2ccccc2c1
- TGI [1]: > 100 µM
- TGI [2]: > 100 µM
- TGI [3]: > 100 µM
- TGI [4]: > 100 µM
- TGI [5]: > 100 µM
- TGI [6]: > 100 µM
- TGI [7]: > 100 µM
- TGI [8]: > 100 µM
- TGI [9]: > 100 µM
- TGI [10]: > 100 µM
- TGI [11]: > 100 µM
- TGI [12]: > 100 µM
- TGI [13]: > 100 µM
- TGI [14]: > 100 µM

SMILES: CCN(CC)CCNc1ccc2nnn3c4ccc(O)cc4c(=O)c1c23
- TGI [1]: 12.8 µM
- TGI [2]: 16 µM
- TGI [3]: 17.5 µM
- TGI [4]: 15.6 µM
- TGI [5]: 28.1 µM
- TGI [6]: 5.96 µM
- TGI [7]: 26.6 µM
- TGI [8]: 4.64 µM
- TGI [9]: 15.7 µM
- TGI [10]: 18.2 µM
- TGI [11]: 18.2 µM
- TGI [12]: 24.2 µM
- TGI [13]: 13.3 µM
- TGI [14]: 12.6 µM

SMILES: COc1ccc2nc3ccc(OC)cc3c(SCc3ccccc3)c2c1
- TGI [1]: > 100 µM
- TGI [2]: > 100 µM
- TGI [3]: > 100 µM
- TGI [4]: > 100 µM
- TGI [5]: > 100 µM
- TGI [6]: > 100 µM
- TGI [7]: > 100 µM
- TGI [8]: > 100 µM
- TGI [9]: > 100 µM
- TGI [10]: > 100 µM
- TGI [11]: > 100 µM
- TGI [12]: > 100 µM
- TGI [13]: > 100 µM
- TGI [14]: > 100 µM

SMILES: Cc1cccc(-c2cc(=O)c3c(C)cc(C)nc3[nH]2)c1
- TGI [1]: 21.9 µM
- TGI [2]: 29.3 µM
- TGI [3]: > 100 µM
- TGI [4]: > 19.7 µM
- TGI [5]: > 100 µM
- TGI [6]: > 100 µM
- TGI [7]: > 20.3 µM
- TGI [8]: 16.6 µM
- TGI [9]: 15.8 µM
- TGI [10]: > 100 µM
- TGI [11]: 31.8 µM
- TGI [12]: > 100 µM
- TGI [13]: > 100 µM
- TGI [14]: > 100 µM

SMILES: C[N+](C)(C)CC(=O)N/N=C/c1ccncc1
- TGI [1]: > 100 µM
- TGI [2]: > 100 µM
- TGI [3]: > 100 µM
- TGI [4]: > 100 µM
- TGI [5]: > 100 µM
- TGI [6]: > 100 µM
- TGI [7]: > 100 µM
- TGI [8]: > 100 µM
- TGI [9]: > 100 µM
- TGI [10]: > 100 µM
- TGI [11]: > 100 µM
- TGI [12]: > 100 µM
- TGI [13]: > 100 µM
- TGI [14]: > 100 µM

SMILES: FC(F)(Sc1ncc[nH]1)c1nc2ccccc2o1
- TGI [1]: > 100 µM
- TGI [2]: > 100 µM
- TGI [3]: > 100 µM
- TGI [4]: > 100 µM
- TGI [5]: > 100 µM
- TGI [6]: > 100 µM
- TGI [7]: > 100 µM
- TGI [8]: > 100 µM
- TGI [9]: > 100 µM
- TGI [10]: > 100 µM
- TGI [11]: > 100 µM
- TGI [12]: > 100 µM
- TGI [13]: > 100 µM
- TGI [14]: > 100 µM

SMILES: Cc1ccc2nc(C=Nc3ccc(Cl)cc3)cc(C)c2c1
- TGI [1]: 24.7 µM
- TGI [2]: > 100 µM
- TGI [3]: 23.3 µM
- TGI [4]: 27.2 µM
- TGI [5]: 83.7 µM
- TGI [6]: 62.3 µM
- TGI [7]: > 69.4 µM
- TGI [8]: > 70.6 µM
- TGI [9]: 25.2 µM
- TGI [10]: 81 µM
- TGI [11]: 27.3 µM
- TGI [12]: 36.4 µM
- TGI [13]: > 100 µM
- TGI [14]: > 83.1 µM

SMILES: O=C1C=CC(=O)c2c1ccc1c3ccccc3n(Cc3cccc([N+](=O)[O-])c3)c21
- TGI [1]: > 100 µM
- TGI [2]: > 100 µM
- TGI [3]: > 100 µM
- TGI [4]: 32.4 µM
- TGI [5]: 65.6 µM
- TGI [6]: 39.2 µM
- TGI [7]: > 100 µM
- TGI [8]: > 100 µM
- TGI [9]: > 100 µM
- TGI [10]: 43.7 µM
- TGI [11]: 61.1 µM
- TGI [12]: > 60.4 µM
- TGI [13]: > 100 µM
- TGI [14]: > 63.8 µM

SMILES: O=C1C=C(OCCCCl)C(=O)c2c(O)ccc(O)c21
- TGI [1]: 3.37 µM
- TGI [2]: 3.57 µM
- TGI [3]: 7.59 µM
- TGI [4]: 2.3 µM
- TGI [5]: 0.438 µM
- TGI [6]: 3.09 µM
- TGI [7]: 6.56 µM
- TGI [8]: 3.1 µM
- TGI [9]: 0.306 µM
- TGI [10]: 2.89 µM
- TGI [11]: 3.39 µM
- TGI [12]: 2.08 µM
- TGI [13]: 0.645 µM
- TGI [14]: 1.71 µM

SMILES: O=C(CCCl)NNC1=NCCCN1
- TGI [1]: > 100 µM
- TGI [2]: > 100 µM
- TGI [3]: > 100 µM
- TGI [4]: > 100 µM
- TGI [5]: > 100 µM
- TGI [6]: > 100 µM
- TGI [7]: > 100 µM
- TGI [8]: > 100 µM
- TGI [9]: > 100 µM
- TGI [10]: > 100 µM
- TGI [11]: > 100 µM
- TGI [12]: > 100 µM
- TGI [13]: > 100 µM
- TGI [14]: > 100 µM
